“Also recorded” adds a separate entry of the source.
Experiments:
KOR [1] = molecular target: T1, KOR (Homo sapiens, UniProt P41145); assay type: binding
KOR [2] = molecular target: T1, KOR; assay type: binding; remark: listed apart in the source
[3] = cited from earlier work
KOR [4] = molecular target: T1, KOR; assay type: biochemical

T1 sequence (P41145 whole entry): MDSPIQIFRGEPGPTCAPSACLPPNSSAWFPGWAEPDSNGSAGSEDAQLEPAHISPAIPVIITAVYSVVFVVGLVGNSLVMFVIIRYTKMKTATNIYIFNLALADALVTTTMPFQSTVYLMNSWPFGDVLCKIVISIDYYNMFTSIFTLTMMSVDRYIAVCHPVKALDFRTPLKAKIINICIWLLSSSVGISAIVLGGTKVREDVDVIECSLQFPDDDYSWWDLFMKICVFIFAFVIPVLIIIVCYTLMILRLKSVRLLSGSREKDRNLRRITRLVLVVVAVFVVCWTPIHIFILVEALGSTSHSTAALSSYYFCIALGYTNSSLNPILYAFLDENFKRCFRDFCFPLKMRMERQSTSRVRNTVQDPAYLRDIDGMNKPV

SMILES | displacement of [3H]diprenorphine at KOR (in words) (KOR [1]) | DOR/KOR (KOR [2]) | MOR/KOR (KOR [2]) | affinity at KOR (in words) (KOR [2]) | stability (in words) [3] | agonist activity at KOR (in words) (KOR [4])
COC(=O)[C@@H]1C[C@H](OC(=O)[C@H](C)N)C(=O)[C@H]2[C@@]1(C)CC[C@H]1C(=O)O[C@H](c3ccoc3)C[C@]21C [Analogue 10] | did not displace [^3H]diprenorphine; also recorded: did not displace KOR antagonist binding | >2.64 | >2.64 | μM affinity; also recorded: in a μM range |  | 
NCC(=O)O [Gly] |  |  |  |  | unstable | 
CNCC(=O)O [Sar] |  |  |  |  | unstable | 
COC(=O)[C@@H]1C[C@H](OC(=O)[C@@H](N)C(C)C)C(=O)[C@H]2[C@@]1(C)CC[C@H]1C(=O)O[C@H](c3ccoc3)C[C@]21C [Analogue 12, 2-(2′-(S)-amino-3-methylbutanoate) salvinorin B] |  | >238 | >238 |  |  | full agonist

Source: PMC3031978 (Bioorganic & medicinal chemistry letters, 2010)
